Experimental data from patent publication US20240294508A1, “RIP1 MODULATORS INCLUDING AZETIDINE CYCLIC UREAS, PREPARATIONS, AND USES THEREOF” (SIRONAX LTD., priority 2021, published 2024).

Each compound was assayed on HT-29 cells (assay: HT29 cells 0FBS assay in vitro: TNF-α/SMAC mimetic/zVAD-FMK induced necroptosis, CellTiter-Glo cell viability (RIP1 inhibitory activity)). Conditions: Homo sapiens, FBS free medium, TNF-α (10 ng/ml) + SMAC mimetic (6 uM) + zVAD-FMK (10 μM), 20 hours, geometric mean EC50.
Type: cell-based
Text: Protocol for HT29 Cells 0FBS Assay In Vitro
• Cell line: HT-29 (ATCC® HTB-38™) • Culture medium: McCOY's 5A, Gibco, Cat No. 16600-082 • FBS, Gibco, Cat No. 10099-141C • Trypsin: Gibco, Cat No. 25200-056 • DMSO: Sigma, Cat No. 67-68-5, 1L • Assay plate: Corning #3903 • Compound dilution plate: Corning #3357 • Inducers: TNFα, GenScript, Cat No. Z01001-50, • SmacM, Cat. No., HY-15989, MedChemExpress (MCE) • Z_VAD FMK, TargetMol, T6013 • Cell Titer-Glo® Luminescent Cell Viability Assay Kit: Promega, Cat No. G7573 • EnVision: PerkinElmer, 2105-0010
2. Cell Seeding of HT-29 Cells
1) HT-29 cells were checked every day to make sure they are healthy and growing as expected. They were split sub-culturing when were approximately 80% confluent.
2) First pre-warm the culture medium of McCOY's 5A medium (Gibco, Cat No. 16600-082) with 10% FBS (Gibco, Cat No. 10099-141C) in 37° C. water bath for at least 30 min.
3) Growing cells to desired level of confluency 80% in a T75 flask, aspirate the medium, and wash with warm PBS two times.
4) Add 2-3 ml fresh warm trypsin (Gibco, Cat No. 25200-056) solution. Transfer the flask to a 37° C. incubator.
5) After 5 minutes, tap the side of the flask, and examine the flask under a microscope for lifting. If necessary, return the cells to the incubator for an additional 5-10 minutes, with occasional tapping, until lifting is complete.
6) Quickly neutralize the trypsin reaction by adding 6-9 ml cell culture medium, then transfer the cells to sterile 15 ml conical tubes. Pellet the cells by centrifugation at 300×g for 7 minutes, then decant the supernatant.
7) Resuspend the cells in fresh cell culture medium. Do cell counting with hemocytometer.
8) Seed 100 μl of 5,000 cells into each well of the sterile 96-well cell culture plate (Corning 3903) and culture overnight at 37° C. with 5% CO2.
3. Compounds Titration and Treatment of HT-29 Cells
1) All batches of compounds (CPDs0 (e.g., compound 1-169) were dissolved in DMSO (Dimethyl sulfoxide) as 20 mM stock solution.
2) Take 3 ul 20 mM stock solution of CPDs to […] DMSO and mix well, continue the titration ratio of 1:3 (20 ul CPDs+40 ul DMSO), e.g., to give solutions of CPDS at 6.6 mM, 2.2 mM, etc., till the 10 points end.
3) Take out assay plates with HT-29 cells from incubator, remove all culture medium then wash 1 time with 1×PBS, and change fresh McCOY's 5A medium of FBS free with a cocktail of TNF-α (10 ng/ml), the SMAC mimetic (6 uM) and zVAD-FMK (10 μM) to stimulate the HT-29 cells to increase pRIPK1 levels and necroptosis.
4) Add 0.5 μL of the diluted compound to the corresponding 96-well assay plates.
5) Incubate the assay plates for 20 hours at 37° C. with 5% CO2.
4. Performing Cell Viability Detection of HT-29 Cells after Treated with Compounds
1) The CellTiter-Glo® Luminescent Cell Viability Assay was employed to detect the ATP levels of viable HT-29 cells.
2) Equilibrate the CellTiter-Glo® buffer and the lyophilized substrate to room temperature prior to use.
3) Resuspend the CellTiter-Glo® substrate with CellTiter-Glo® buffer, mix by gently vortexing to obtain a homogeneous solution.
4) Pipette 20 μl the enzyme/substrate mixture by multi-channel pipette into the 96-well assay plates from step 5) under the Compounds titration and treatment stage.
5) Place the plates on an orbital shaker and mix the contents for 3 minutes to induce cell lysis.
6) Then allow the plates to incubate at room temperature for 10 minutes to stabilize luminescent signal.
7) Read and record luminescence signal with EnVision.
8) The geometric mean EC50 of the compounds were calculated from 10 points response dose with duplicate. In Table 2, activity is provided as follows: +++=0.1 nM≤EC50<100 nM; ++=100 nM≤EC5 1000 nM; […].

Cc1ncc(C2CC=NN2C(=O)N2CC(Oc3nc(-c4c(C)cnn4C)ccc3F)C2)s1 (stereo not drawn) [Compound 106, (3-((6-(1,4-dimethyl-1H-pyrazol-5-yl)-3-fluoropyridin-2-yl)oxy)azetidin-1-yl)(5-(2-methylthiazol-5-yl)-4,5-dihydro-1H-pyrazol-1-yl)methanone] and Cc1cnc([C@@H]2CC=NN2C(=O)N2CC(Oc3cc(-c4c(C)cnn4C)ncc3F)C2)s1 [Compound 138, (S)-(3-((2-(1,4-dimethyl-1H-pyrazol-5-yl)-5-fluoropyridin-4-yl)oxy)azetidin-1-yl)(5-(5-methylthiazol-2-yl)-4,5-dihydro-1H-pyrazol-1-yl)methanone] fall in the same range of EC50: 0.1 to 100 nM for the first, 0.1 to 100 nM for the second.

Cc1nn(-c2cc(OC3CN(C(=O)N4N=CC[C@H]4c4cccc(F)c4)C3)c(F)cn2)c(C)c1C(N)=O [Compound 73, (S)-1-(5-fluoro-4-((1-(5-(3-fluorophenyl)-4,5-dihydro-1H-pyrazole-1-carbonyl)azetidin-3-yl)oxy)pyridin-2-yl)-3,5-dimethyl-1H-pyrazole-4-carb oxamide] and Cc1nn(-c2cc(OC3CN(C(=O)N4N=CC[C@H]4c4ccccc4)C3)c(F)cn2)c(C)c1C(N)=O [Compound 71, (S)-1-(5-fluoro-4-((1-(5-phenyl-4,5-dihydro-1H-pyrazole-1-carbonyl)azetidin-3-yl)oxy)pyridin-2-yl)-3,5-dimethyl-1H-pyrazole-4-carboxamide] fall in the same range of EC50: 0.1 to 100 nM for the first, 0.1 to 100 nM for the second.

Cc1nn(-c2cc(OC3CN(C(=O)N4N=CC[C@H]4c4cc(F)cc(Cl)c4)C3)c(F)cn2)c(C)c1C(N)=O [Compound 133, (S)-1-(4-((1-(5-(3-chloro-5-fluorophenyl)-4,5-dihydro-1H-pyrazole-1-carbonyl)azetidin-3-yl)oxy)-5-fluoropyridin-2-yl)-3,5-dimethyl-1H-pyrazole-4-carboxamide] and Cc1nn(-c2cc(OC3CN(C(=O)N4N=CCC4c4cc(F)cc(Cl)c4)C3)c(F)cn2)c(C)c1C(N)=O (stereo not drawn) [Compound 117, 1-(4-((1-(5-(3-chloro-5-fluorophenyl)-4,5-dihydro-1H-pyrazole-1-carbonyl)azetidin-3-yl)oxy)-5-fluoropyridin-2-yl)-3,5-dimethyl-1H-pyrazole-4-carboxamide] fall in the same range of EC50: 0.1 to 100 nM for the first, 0.1 to 100 nM for the second.

First: Cc1nn(-c2cc(OC3CN(C(=O)N4N=CC[C@@H]4c4cc(F)cc(F)c4F)C3)c(F)cn2)c(C)c1C(N)=O [Compound 103, (R)-1-(5-fluoro-4-((1-(5-(2,3,5-trifluorophenyl)-4,5-dihydro-1H-pyrazole-1-carbonyl)azetidin-3-yl)oxy)pyridin-2-yl)-3,5-dimethyl-1H-pyrazole-4-carboxamide]
Second: Cc1nn(-c2cc(OC3CN(C(=O)N4N=CCC4c4cc(F)cc(F)c4F)C3)c(F)cn2)c(C)c1S(N)(=O)=O (stereo not drawn) [Compound 112, 1-(5-fluoro-4-((1-(5-(2,3,5-trifluorophenyl)-4,5-dihydro-1H-pyrazole-1-carbonyl)azetidin-3-yl)oxy)pyridin-2-yl)-3,5-dimethyl-1H-pyrazole-4-sulfonamide]
The EC50 of the first is higher: 1000 to 10000 nM for the first, 0.1 to 100 nM for the second.

Cn1ncc(C#N)c1-c1csc(OC2CN(C(=O)N3N=CC[C@H]3c3cc(F)cc(F)c3)C2)n1 [Compound 150, (S)-5-(2-((1-(5-(3,5-difluorophenyl)-4,5-dihydro-1H-pyrazole-1-carbonyl)azetidin-3-yl)oxy)thiazol-4-yl)-1-methyl-1H-pyrazole-4-carbonitrile] and Cn1ncc(C#N)c1-c1cc(OC2CN(C(=O)N3N=CC[C@H]3c3cncc(F)c3)C2)c(F)cn1 [Compound 26, (S)-5-(5-fluoro-4-((1-(5-(5-fluoropyridin-3-yl)-4,5-dihydro-1H-pyrazole-1-carbonyl)azetidin-3-yl)oxy)pyridin-2-yl)-1-methyl-1H-pyrazole-4-carbonitrile] fall in the same range of EC50: 0.1 to 100 nM for the first, 0.1 to 100 nM for the second.

Cc1noc(C)c1-c1cc(OC2CN(C(=O)N3N=CC[C@H]3c3cc(F)cc(C#N)c3)C2)c(F)cn1 [Compound 89, (S)-3-(1-(3-((2-(3,5-dimethylisoxazol-4-yl)-5-fluoropyridin-4-yl)oxy)azetidine-1-carbonyl)-4,5-dihydro-1H-pyrazol-5-yl)-5-fluorobenzonitrile] and Cc1nn(-c2cc(OC3CN(C(=O)N4N=CC[C@H]4c4cc(F)cc(C#N)c4)C3)c(F)cn2)c(C)c1C(N)=O [Compound 70, (S)-1-(4-((1-(5-(3-cyano-5-fluorophenyl)-4,5-dihydro-1H-pyrazole-1-carbonyl)azetidin-3-yl)oxy)-5-fluoropyridin-2-yl)-3,5-dimethyl-1H-pyrazole-4-carboxamide] fall in the same range of EC50: 0.1 to 100 nM for the first, 0.1 to 100 nM for the second.

First: Cc1ccn(C)c(=O)c1-c1cc(OC2CN(C(=O)N3N=CC[C@H]3c3cc(F)cc(F)c3)C2)c(F)cn1 [Compound 168, (S)-4-((1-(5-(3,5-difluorophenyl)-4,5-dihydro-1H-pyrazole-1-carbonyl)azetidin-3-yl)oxy)-5-fluoro-1′,4′-dimethyl-[2,3′-bipyridin]-2′(1′H)-one]
Second: Cc1cc(F)cc(C2CC=NN2C(=O)N2CC(Oc3cc(-c4c(C)cnn4C)ncc3F)C2)c1 (stereo not drawn) [Compound 130, (3-((2-(1,4-dimethyl-1H-pyrazol-5-yl)-5-fluoropyridin-4-yl)oxy)azetidin-1-yl)(5-(3-fluoro-5-methylphenyl)-4,5-dihydro-1H-pyrazol-1-yl)methanone]
The EC50 of the first is higher: 1000 to 10000 nM for the first, 0.1 to 100 nM for the second. The second is the more potent here.

Cc1c(N)nn(C)c1-c1cc(OC2CN(C(=O)N3N=CC[C@H]3c3cncc(C#N)c3)C2)c(F)cn1 [Compound 62, (S)-5-(1-(3-((2-(3-amino-1,4-dimethyl-1H-pyrazol-5-yl)-5-fluoropyridin-4-yl)oxy)azetidine-1-carbonyl)-4,5-dihydro-1H-pyrazol-5-yl)nicotinonitrile] and Cn1ncc(Cl)c1-c1cc(OC2CN(C(=O)N3N=CC[C@H]3c3cncc(C#N)c3)C2)c(F)cn1 [Compound 44] fall in the same range of EC50: 0.1 to 100 nM for the first, 0.1 to 100 nM for the second.

Cc1ncsc1-c1cc(OC2CN(C(=O)N3N=CC[C@H]3c3cncc(F)c3)C2)c(F)cn1 [Compound 64, (S)-(3-((5-fluoro-2-(4-methylthiazol-5-yl)pyridin-4-yl)oxy)azetidin-1-yl)(5-(5-fluoropyridin-3-yl)-4,5-dihydro-1H-pyrazol-1-yl)methanone] and Cn1ccnc1-c1cc(OC2CN(C(=O)N3N=CC[C@H]3c3cncc(F)c3)C2)c(F)cn1 [Compound 37, (S)-(3-((5-fluoro-2-(1-methyl-1H-imidazol-2-yl)pyridin-4-yl)oxy)azetidin-1-yl)(5-(5-fluoropyridin-3-yl)-4,5-dihydro-1H-pyrazol-1-yl)methanone] fall in the same range of EC50: 0.1 to 100 nM for the first, 0.1 to 100 nM for the second.

Cc1noc(C)c1-c1ncc(F)c(OC2CN(C(=O)N3N=CC[C@H]3c3cncc(F)c3)C2)n1 [Compound 4, (S)-(3-((2-(3,5-dimethylisoxazol-4-yl)-5-fluoropyrimidin-4-yl)oxy)azetidin-1-yl)(5-(5-fluoropyridin-3-yl)-4,5-dihydro-1H-pyrazol-1-yl)methanone] and Cn1ncc(Cl)c1-c1ncc(F)c(OC2CN(C(=O)N3N=CC[C@H]3c3cc(F)cc(C#N)c3)C2)n1 [Compound 16] fall in the same range of EC50: 0.1 to 100 nM for the first, 0.1 to 100 nM for the second.

Work on Cc1cc(F)cc([C@H]2CC=NN2C(=O)N2CC(Oc3cc(-n4nc(C)c(C(=O)O)c4C)ncc3F)C2)c1 [Compound 143, (R) 1-(5-fluoro-4-((1-(5-(3-fluoro-5-methylphenyl)-4,5-dihydro-1H-pyrazole-1-carbonyl)azetidin-3-yl)oxy)pyridin-2-yl)-3,5-dimethyl-1H-pyrazole-4-carboxylic acid] yielded an EC50 of 100 to 1000 nM.
